The results in this text go back to patent publication US20090264447A1, “Pyrimidine compounds for combating pathogenic fungi and cancer” (BASF SE, priority 2006, published 2009).

SMILES strings stand for the structures.

The experiment has as its system HeLa B cells. Nature of the experiment: Cell cycle inhibition in HeLa cells (FACS, G0/G1 to G2/M ratio). Type of experiment: cell-based. To be noted: read-out: IC50 (concentration at which 50% of the cells are inhibited in their cell cycle), 20 h incubation with compound. How it is done:
HeLa B cells were cultivated in DMEM (Life Technologies Cat. No. 21969-035) containing fetal calf serum (FCS, Life Technologies Cat. No. 10270-106) in 180 cm^2 containers at 37° C., 92% humidity and 7% CO2.
5×10^4 cells per well were added into a 24-well plate. After 20 h, the compounds to be tested were added such that the final concentration was 1×10^−6, 3.3×10^−7, 1.1×10^−7, 3.7×10^−8, 1.2×10^−8 and 1×10^−9 M in a final volume of 500 μl. 6 wells contained only DMSO as control. The treated cells were incubated as described above for a further 20 h. The cells were then examined under the microscope for dead cells. The 24-well plate was then centrifuged at 1200 rpm at 20° C., an acceleration in position 7 and the brake position 5 (Eppendorf centrifuge 5804R) for 5 min.
The supernatant was removed and the cells were lysed with 0.5 ml of RNase buffer (10 mM sodium citrate, 0.1% Nonidet NP40, 50 μg/ml RNase, 10 μg/ml propidium iodide) per well. The plates were then incubated at room temperature in the dark for at least 30 min, and the samples were then transferred into FACS tubes. These were measured in an FACS instrument (Beckton Dickinson) with the following settings:
Instrument settings at the FACS Calibur:
The ratio of cells in the G0/G1 phase to those in the G2/M phase was calculated and compared to the value for the control (DMSO).
As for `CON=C(N)c1nc(Cl)c(-c2c(F)cc(OCCCN(C)C)cc2F)c(N2CCC(C)CC2)n1` [Example 2], the IC50 is 27 nM. As to `COCCCOc1cc(F)c(-c2c(Cl)nc(C(N)=NOC)nc2NC(C)C(C)(C)C)c(F)c1` (stereo not drawn) [Example 7], the IC50 was found to be 56 nM. Turning to `CC1CCN(c2nc(-n3cccn3)nc(Cl)c2-c2c(F)cc(OCCCN(C)C(=O)OC(C)(C)C)cc2F)CC1` [Example 11], the IC50 turned out to be 570 nM. The figure for `CC1CCN(c2nc(-n3cccn3)nc(Cl)c2-c2c(F)cc(OCCCOc3cc(Cl)ncn3)cc2F)CC1` [Example 12] is 470 nM; for `COCCCOc1cc(F)c(-c2c(Cl)nc(-n3cccn3)nc2NC(C)C(C)(C)C)c(F)c1` (stereo not drawn) [Example 15] it is 32 nM; for `COCCCOc1cc(F)c(-c2c(Cl)nc(-n3cccn3)nc2NC(C)C(C)C)c(F)c1` (stereo not drawn) [Example 16] it is 26 nM. The figure for `COCCCOc1cc(F)c(-c2c(Cl)nc(-n3ccnn3)nc2NC(C)C(C)C)c(F)c1` (stereo not drawn) [Example 17] is 32 nM. The figure for `COCCCOc1cc(F)c(-c2c(Cl)nc(-n3ccnn3)nc2NC(C)C(C)(C)C)c(F)c1` (stereo not drawn) [Example 18] is 29 nM; for `COCCCOc1cc(F)c(-c2c(Cl)nc(-n3nccn3)nc2NC(C)C(C)C)c(F)c1` (stereo not drawn) [Example 19] it is 26 nM. Regarding `COCCCOc1cc(F)c(-c2c(Cl)nc(-n3nccn3)nc2NC(C)C(C)(C)C)c(F)c1` (stereo not drawn) [Example 20], the IC50 came out at 27 nM. With `CNCCCOc1cc(F)c(-c2c(Cl)nc(-n3cncn3)nc2N2CCC(C)CC2)c(F)c1` [Example 21], the IC50 stood at 18 nM.

Regarding `CC1CCN(c2nc(-n3cncn3)nc(Cl)c2-c2c(F)cc(OCCCN(C)C(=O)OC(C)(C)C)cc2F)CC1` [Example 22], the IC50 amounted to 290 nM. As for `CC1CCN(c2nc(-n3cncn3)nc(Cl)c2-c2c(F)cc(OCCCOc3cc(Cl)ncn3)cc2F)CC1` [Example 23], the IC50 was 330 nM. As to `COCCCOc1cc(F)c(-c2c(Cl)nc(-n3cncn3)nc2NC(C)C(C)(C)C)c(F)c1` (stereo not drawn) [Example 24], the IC50 came to 42 nM. On to `COCCCOc1cc(F)c(-c2c(Cl)nc(-n3cncn3)nc2NC(C)C(C)C)c(F)c1` (stereo not drawn) [Example 25], for which the IC50 was 42 nM. `CC1CCN(c2nc(C#N)nc(Cl)c2-c2c(F)cc(OCCCN(C)C)cc2F)CC1` [Example 27]: the IC50 amounted to 220 nM.

`COCCCOc1cc(F)c(-c2c(Cl)nc(C#N)nc2N2CCC(C)CC2)c(F)c1` [Example 31]: the IC50 came to 120 nM. The result for `CC1CCN(c2nc(C#N)nc(Cl)c2-c2c(F)cc(OCCCOc3cc(Cl)ncn3)cc2F)CC1` [Example 32] reads 570 nM; that for `CNCCCOc1cc(F)c(-c2c(Cl)nc(C#N)nc2N2CCCCCC2)c(F)c1` [Example 33], 480 nM; that for `COCCCOc1cc(F)c(-c2c(Cl)nc(C#N)nc2NC(C)C(C)(C)C)c(F)c1` (stereo not drawn) [Example 35], 190 nM.

Take `COCCCOc1cc(F)c(-c2c(Cl)nc(C#N)nc2NC(C)C(C)C)c(F)c1` (stereo not drawn) [Example 36]: the IC50 came to 59 nM. With `CC(Nc1nc(C#N)nc(Cl)c1-c1c(F)cc(OCCCCl)cc1F)C(C)(C)C` (stereo not drawn) [Example 37], the IC50 is 280 nM. For `CC(C)C(C)Nc1nc(C#N)nc(Cl)c1-c1c(F)cc(OCCCCl)cc1F` (stereo not drawn) [Example 38], the IC50 amounted to 330 nM.

As to `CNCCCOc1cc(F)c(-c2c(Cl)nc(C(=O)c3ccc(C)cc3)nc2N2CCCCCC2)c(F)c1` [Example 39], the IC50 was 580 nM.
